These results are taken from patent US20130331610A1, “Halogenated Pyrazolo[1,5-A]Pyrimidines, Processes, Uses, Compositions and Intermediates” (priority 2005, published 2013).

Where two headings read alike, the source gives them in different places.

One series concerns motor activity of mice. Description: In vivo predictive sedation-hypnosis test in mice (inhibition of traveled distance). Set-up: species or system mouse. The note with it: for inhibition in vivo at 0.98 µmol/kg / inhibition in vivo at 98 µmol/kg / inhibition in vivo at 3 µmol/kg: Mus musculus, read-out: % Inhib motor activity; for inhibition in vivo at 0.98 µmol/kg: 0.98 μmol/kg; for inhibition in vivo at 0.98 µmol/kg / inhibition in vivo at 98 µmol/kg / inhibition in vivo at 3 µmol/kg / inhibition percentage (motor activity): mice; for inhibition in vivo at 98 µmol/kg: 98 μmol/kg; for inhibition in vivo at 3 µmol/kg: 3 μmol/kg; for inhibition percentage (motor activity): 3 μmol/kg po. The protocol: 2—In Vivo Determination of Predictive Sedative-Hypnotic Action
The in vivo effects of these compounds were assessed by a predictive sedation-hypnosis test in mice (D. J. Sanger et al., Eur. J. Pharmacol., 313, 35-42, 1996; and G. Griebel et al., Psychopharmacology, 146, 205-213, 1999).
Groups of 5-8 male CD1 mice, weighing 22-26 g at the time of testing, were used. The test compounds were administered in single equimolecular intraperitoneal doses, suspended in 0.25% agar with one drop of Tween 80 in a volume of 10 ml/kg. Two doses were tested in each route. Control animals received the vehicle alone. Using a Smart System (Panlab, S. L., Spain) the traveled distance in cm was recorded for each mouse at 5-min intervals during a period of 30 minutes after intraperitoneal (ip) dosing and 60 minutes after oral (po) dosing. The inhibition percentage of traveled distance of treated animals versus control animals (the first 5 min were discarded) was calculated.

The target of series [1] is α1 subunit of GABAA receptor (Rattus norvegicus, UniProt P18508+P62813). The series can be described thus: biochemical. The following applies: for inhibition at 10 µM: read-out: % Inhib 10^−5 M; for inhibition at 0.1 µM: read-out: % Inhib 10^−7 M. The source says: % specific binding=(X−N/T−N)×100
The subject of the next series is HepG2 cells. The series can be described thus: In vitro cell toxicity in HepG2 at 24 h (MTS). It counts as cell-based, human. The following applies: for cell toxicity in HepG2, percentage of control (relative cell viability): 100 μM, 24 h, MTS; for cytotoxicity compared with prior art compounds: HepG2, 24 h. The protocol:
In Vitro Determination of Cell Toxicity in HepG2 at 24 h
HepG2 cells (human hepatocellular carcinoma) were obtained from the American Type Culture Collection (ATCC) and cultured in Eagle's Minimum Essential Medium (Eagle) with Earle's balanced salt solution adjusted to contain 1.87 mM Glutamax™ I, 0.1 mM non-essential amino acids, 1.0 mM sodium pyruvate, 100000 U/L penicillin, 10000 μg/L streptomycin 90%; fetal bovine serum, 10%. Promega CellTiter 96® Aqueous Non-Radioactive Cell Viability Assay contains the tetrazolium compound [3-(4,5-dimethylthiazol-2-yl)-5-(3-carboxymethoxyphenyl)-2-(4-sulfophenyl)-2H-tetrazolium, inner salt (MTS). The conversion of MTS into the aqueous soluble formazan product is accomplished by dehydrogenase enzymes found in metabolically active cells. The quantity of formazan product is directly proportional to the number of living cells in culture.
Compounds were dissolved in DMSO to achieve an initial concentration of 100 mM. Serial dilutions were made from this stock solution into DMSO to achieve concentrations of 10, 1, 0.1 and 0.01 mM. The stock solution and serial dilutions were then diluted 1:100 with cell culture medium to obtain […] final assay concentrations of […]. The final DMSO concentration in all wells was 1% v/v. HepG2 cells were incubated with test compounds for 24 hours. Relative cell viability was determined spectrophotometrically at 490 nm following the addition of the MTS dye and further one-hour incubation. Tamoxifen was used as the positive control.
The percent absorbance of the samples treated with the test article was compared to the untreated sample to calculate the percentage of control.

Series [2] can be described thus: Metabolic stability in human hepatocytes cytosolic fraction. It counts as in vitro ADME. The following applies: 5 μM, 1.0 mg/ml human cytosol, 37° C. As for the experimental part: In Vitro Determination of Metabolic Stability in Human Hepatocytes Cytosolic Fraction
Compounds were dissolved in DMSO to achieve an initial concentration of 10 mM. This stock solution was then diluted with solvent and buffer to obtain final assay concentration of 5 μM. Compounds were tested at a single concentration of 5 μM in duplicate incubating with 1.0 mg/ml of pooled human cytosol (obtained from Xenotech plc) at 37° C. Metabolism was assessed in the presence or absence of cofactors and measured as loss of parent compound by LC/MS analysis at 0, 60 and 120-minutes time points. Percent parent remaining was then calculated. A generic LC method was used: • Mobile phase: • A=0.1% Formic acid in water • B=0.1% Formic acid in acetonitrile • HPLC Column: Higgins Clipius C18 5 μm, 50×3 mm • Flow rate: 2 ml·min^−1

The target in series [3] is α2 subunit of GABAA receptor (Rattus norvegicus, UniProt P18508+P23576). Description: biochemical. The note with it: for inhibition at 10 µM: read-out: % Inhib 10^−5 M; for inhibition at 0.1 µM: read-out: % Inhib 10^−7 M.
Method: Determination of the Affinity of Test Compounds for α1- and α2-GABAA Receptor
Male Sprague-Dawley rats weighing 200-250 g at the time of experiment were used. After decapitation, the cerebellum (tissue that mostly contains α1-GABAA receptor) and spinal cord (tissue that mostly contains α2-GABAA receptor) were removed. […] Once the tissues weighed, they were suspended in 50 mM Tris.HCl (pH 7.4), 1:40 (v/v), or sucrose 0.32 M in the case of spinal cord, homogenized and then centrifuged at 20000 g for 10 min at 7° C. The resulting pellet was resuspended under the same conditions and centrifuged again. The pellet was finally resuspended on a minimum volume and kept at −80° C. overnight. On the next day, the process was repeated until the final pellet was resuspended at a ratio of 1:10 (v/v) in the case of cerebellum and at a ratio of 1:5 (v/v) in the case of spinal cord.
Affinity was determined by competitive tests using radiolabeled flumazenil as ligand. […] Simultaneously, the membranes were only incubated with the radiolabeled flumazenil (total binding, 100%) and in the presence of an elevated concentration of unradiolabeled flumazenil (non-specific binding, % estimation of radiolabeled ligand). The reactions started on adding the radiolabeled ligand followed by incubation for 60 minutes at 4° C. At the end of the incubation period, 200 μl of reaction were transferred to a multiscreen plate (Millipore) and filtered using a vacuum manifold and then washed three times with cold test buffer. The multiscreen plates were equipped with a GF/B filter that retained the membranes containing the receptors and the radiolabeled ligand which had been bound to the receptors. After washing, the plates were left till dry. Once dried, scintillation liquid was added and left under stirring overnight. The next day the plates were counted using a Perkin-Elmer Microbeta scintillation counter.
where, X: amount of bound ligand for every concentration of compound. T: total binding, maximum amount bound to the radiolabeled ligand. N: non-specific binding, amount of radiolabeled ligand bound in a non-specific way irrespective of the receptor used.
Every concentrations of each compound were tested in triplicate and their mean values were used to determine the experimental values of % specific binding versus the concentration of compound.
Series [4] is described as follows: Pharmacokinetic profile after single intravenous dose in rats. The series is classed as in vivo. The following applies: rat; for Vd / clearance / half-life: male, Sprague-Dawley, plasma; for Vd / clearance / half-life / AUC0-t: mean. As for the experimental part: In Vivo Determination of Pharmacokinetic Profile after Single Dose
Indiplon was used as reference compound. Three male Sprague-Dawley rats, weighing 250-300 g were used for each compound. The sampling was performed by retroorbital sinus puncture at the following time points 2.5, 5, 30, 60, 120, 180, 300 and 420 min post-administration. The samples were kept in an ice-bath until plasma separation. The animals were anaesthetized by isoflurane inhaled at each extraction. Plasma was separated by centrifugation (10 min, 4° C., 4500 rpm) and stored at temperature below −70° C. until analysis.
An analytical method based on an extraction of each compound by liquid-solid extraction and subsequent determination by LC/MS or LC/MS/MS using an internal standard (IS) was used.
Calculation of pharmacokinetic parameters (AUC0-t=area under the curve from zero to last extraction time-point, Cl=clearance, t1/2=half-life and Vd=volume of distribution) according to non-compartmental analysis was performed.

α1 subunit of GABAA receptor, sequence (P62813 28-455): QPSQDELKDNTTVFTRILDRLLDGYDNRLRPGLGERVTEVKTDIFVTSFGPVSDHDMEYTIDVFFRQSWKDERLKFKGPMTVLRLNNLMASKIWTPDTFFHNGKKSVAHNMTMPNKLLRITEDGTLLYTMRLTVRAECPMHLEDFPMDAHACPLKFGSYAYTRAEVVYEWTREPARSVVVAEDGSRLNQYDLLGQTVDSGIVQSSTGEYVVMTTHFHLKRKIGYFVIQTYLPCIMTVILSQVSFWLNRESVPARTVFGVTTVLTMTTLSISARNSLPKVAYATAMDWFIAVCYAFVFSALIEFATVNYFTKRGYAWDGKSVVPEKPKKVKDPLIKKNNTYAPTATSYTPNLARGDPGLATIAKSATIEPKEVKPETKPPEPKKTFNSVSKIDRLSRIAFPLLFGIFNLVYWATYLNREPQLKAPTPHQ
α1 subunit of GABAA receptor, sequence (P18508 39-466): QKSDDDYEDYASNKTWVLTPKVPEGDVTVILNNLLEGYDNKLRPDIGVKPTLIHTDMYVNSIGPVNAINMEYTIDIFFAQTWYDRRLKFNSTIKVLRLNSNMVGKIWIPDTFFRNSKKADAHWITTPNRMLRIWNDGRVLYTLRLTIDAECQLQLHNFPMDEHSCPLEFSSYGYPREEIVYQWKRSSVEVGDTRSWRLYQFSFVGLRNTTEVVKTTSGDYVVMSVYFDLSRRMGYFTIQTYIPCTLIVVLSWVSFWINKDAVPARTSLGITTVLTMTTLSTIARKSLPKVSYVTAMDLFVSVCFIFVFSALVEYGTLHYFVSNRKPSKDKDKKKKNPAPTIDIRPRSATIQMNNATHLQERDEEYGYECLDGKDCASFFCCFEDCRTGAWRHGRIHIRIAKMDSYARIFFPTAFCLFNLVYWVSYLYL
α1 subunit of GABAA receptor, sequence (P63138 26-474 partner): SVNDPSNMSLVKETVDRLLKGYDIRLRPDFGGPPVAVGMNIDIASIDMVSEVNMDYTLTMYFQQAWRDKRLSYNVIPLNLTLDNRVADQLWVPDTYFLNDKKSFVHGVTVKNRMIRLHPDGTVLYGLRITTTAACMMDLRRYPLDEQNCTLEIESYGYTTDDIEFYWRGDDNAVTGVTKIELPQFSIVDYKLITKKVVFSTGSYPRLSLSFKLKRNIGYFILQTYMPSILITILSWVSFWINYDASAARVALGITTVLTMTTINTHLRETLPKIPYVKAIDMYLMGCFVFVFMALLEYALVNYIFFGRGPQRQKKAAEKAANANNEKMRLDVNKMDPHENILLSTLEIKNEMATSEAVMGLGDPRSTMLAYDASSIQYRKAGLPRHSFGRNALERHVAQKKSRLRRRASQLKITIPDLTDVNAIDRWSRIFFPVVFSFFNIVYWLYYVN
α2 subunit of GABAA receptor, sequence (P23576 29-451): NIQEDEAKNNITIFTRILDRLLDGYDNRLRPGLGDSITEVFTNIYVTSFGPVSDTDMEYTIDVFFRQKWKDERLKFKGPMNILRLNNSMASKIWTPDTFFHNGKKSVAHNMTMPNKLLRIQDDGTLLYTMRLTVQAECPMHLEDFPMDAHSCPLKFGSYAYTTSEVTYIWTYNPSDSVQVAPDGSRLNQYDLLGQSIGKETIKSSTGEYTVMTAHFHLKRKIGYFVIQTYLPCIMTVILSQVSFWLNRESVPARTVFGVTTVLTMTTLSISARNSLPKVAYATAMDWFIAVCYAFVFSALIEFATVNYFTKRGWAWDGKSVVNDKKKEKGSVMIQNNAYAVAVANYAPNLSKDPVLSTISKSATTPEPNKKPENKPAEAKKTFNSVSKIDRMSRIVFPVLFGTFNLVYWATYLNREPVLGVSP
α2 subunit of GABAA receptor, sequence (P18508 39-466): as the sequence (P18508 39-466) above
α2 subunit of GABAA receptor, sequence (P63079 26-473 partner): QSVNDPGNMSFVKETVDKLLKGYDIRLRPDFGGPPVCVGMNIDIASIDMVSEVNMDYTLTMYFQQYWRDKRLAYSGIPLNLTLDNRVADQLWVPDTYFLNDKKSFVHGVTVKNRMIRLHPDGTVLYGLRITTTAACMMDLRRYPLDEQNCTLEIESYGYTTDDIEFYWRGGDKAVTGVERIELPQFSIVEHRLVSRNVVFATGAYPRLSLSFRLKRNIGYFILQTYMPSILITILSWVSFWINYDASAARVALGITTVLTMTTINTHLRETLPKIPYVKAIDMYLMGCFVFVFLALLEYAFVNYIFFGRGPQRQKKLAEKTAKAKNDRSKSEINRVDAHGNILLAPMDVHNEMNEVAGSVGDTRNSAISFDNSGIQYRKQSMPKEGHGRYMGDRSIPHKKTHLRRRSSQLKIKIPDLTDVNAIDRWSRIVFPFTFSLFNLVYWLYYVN

Take `CCN(C(C)=O)c1cccc(-c2ccnc3c(C#N)cnn23)c1` [Zaleplon, reference compound]: in the series with motor activity of mice (ip), the inhibition in vivo at 0.98 µmol/kg was 32.7% and the inhibition in vivo at 98 µmol/kg was 85%. Moreover, in the series with motor activity of mice (po), the inhibition in vivo at 3 µmol/kg was 25.4% and the inhibition in vivo at 98 µmol/kg was 64.1%.

`CN(c1cc(-c2ccnc3c(C(=O)c4cccs4)cnn23)ccc1F)S(C)(=O)=O` [Preparative example 6, N-{2-Fluoro-5-[3-(thiophene-2-carbonyl)-pyrazolo[1,5-a]pyrimidin-7-yl]-phenyl}-N-methyl-methanesulfonamide]: in series [1], the inhibition at 10 µM came out at 99.7% and the inhibition at 0.1 µM is 88.8%. Moreover, in the series with HepG2 cells, the “cell toxicity in HepG2, percentage of control (relative cell viability)” value stood at 84.31% and the “cytotoxicity compared with prior art compounds” value was “less cytotoxicity than prior art compounds”. Further, in series [2] (60 min), the Percent parent remaining worked out at 103%. Further, the Percent parent remaining in series [2] (120 min) is recorded as 106%. Further, in series [3], the inhibition at 10 µM was found to be 97.9% and the inhibition at 0.1 µM amounted to 55.9%. In the series with motor activity of mice (ip), the inhibition in vivo at 0.98 µmol/kg was 69.4% and the inhibition in vivo at 98 µmol/kg was 91.5%. In the series with motor activity of mice (po), the inhibition in vivo at 3 µmol/kg was 46.2% and the inhibition in vivo at 98 µmol/kg is 82%.

Turning to `CN(c1cccc(-c2ccnc3c(C(=O)c4cccs4)cnn23)c1)S(C)(=O)=O` [Example 3 WO2005014597, N-{3-[3-(thiophene-2-carbonyl)-pyrazolo[1,5-a]pyrimidin-7-yl]-phenyl}-N-methyl-methanesulfonamide, reference compound], in series [1], the inhibition at 10 µM was 100% and the inhibition at 0.1 µM was found to be 90.6%. For the same compound, in series [3], the inhibition at 10 µM was 99.8% and the inhibition at 0.1 µM amounted to 58.5%. Moreover, in the series on motor activity of mice (ip), the inhibition in vivo at 0.98 µmol/kg was 64.6% and the inhibition in vivo at 98 µmol/kg is 89.8%.

Turning to `CC(=O)N(C)c1cc(-c2ccnc3c(C(=O)c4cccs4)cnn23)ccc1Cl` [Preparative example 4, N-{2-Chloro-5-[3-(thiophene-2-carbonyl)-pyrazolo[1,5-a]pyrimidin-7-yl]-phenyl}-N-methyl-acetamide], the inhibition at 10 µM was 99.8% in series [1] and 95.7% in series [3]. The results for the inhibition at 0.1 µM in series [1] and in series [3] were 60% and 8.4%, respectively. Moreover, the “cell toxicity in HepG2, percentage of control (relative cell viability)” value with HepG2 cells was found to be 92.86%. In the series with HepG2 cells, the “cytotoxicity compared with prior art compounds” value is on record as “less cytotoxicity than prior art compounds”. Moreover, the Percent parent remaining in series [2] (60 min) was found to be 105%; in series [2] (120 min) it was 103%. Also, the inhibition in vivo at 98 µmol/kg in the series with motor activity of mice (ip) was 90.3%; in the series on motor activity of mice (po), 88.7%.

On to `C#CCN(c1cc(-c2ccnc3c(C(=O)c4cccs4)cnn23)ccc1F)S(C)(=O)=O` [Preparative example 10, N-{2-Fluoro-5-[3-(thiophene-2-carbonyl)-pyrazolo[1,5-a]pyrimidin-7-yl]-phenyl}-N-prop-2-ynyl-methanesulfonamide], for which the melting point (usually the temperature, or range, at which the solid turns liquid) lay in the range of 149 to 153 °C. For the same compound, in series [1], the inhibition at 10 µM amounted to 100% and the inhibition at 0.1 µM was 99.7%. Further, in series [3], the inhibition at 10 µM was found to be 100% and the inhibition at 0.1 µM was 97.5%. Besides, in the series with motor activity of mice (ip), the inhibition in vivo at 0.98 µmol/kg is 91.9% and the inhibition in vivo at 98 µmol/kg was 91.6%. For the same compound, in the series on motor activity of mice (po), the inhibition in vivo at 3 µmol/kg is 47.9% and the inhibition in vivo at 98 µmol/kg is 90.2%. The “increase in sedative-hypnotic activity” value in the series on motor activity of mice (versus Example 16 of WO2005014597, low dose, independently of the administration route) is listed as “higher than 20%”.

In the case of `CC(=O)N(C)c1cc(-c2ccnc3c(C(=O)c4cccs4)cnn23)ccc1F` [Preparative example 2, N-{2-Fluoro-5-[3-(thiophene-2-carbonyl)-pyrazolo[1,5-a]pyrimidin-7-yl]-phenyl}-N-methyl-acetamide], in series [1], the inhibition at 10 µM turned out to be 100% and the inhibition at 0.1 µM was determined as 95.3%. Further, in series [4], the Vd – broadly, a proportionality between amount in the body and measured concentration, not a real space – amounted to 7.24 L/kg; the clearance – broadly, a measure of how efficiently the substance is removed, as volume per time – was 45.7 mL/min/kg; the half-life (as a rule, the time in which the quantity being followed falls by half) is 1.73 h; the AUC0-t came out at 1100 ng·h/mL. For the same compound, in series [4] (versus Indiplon), the “area under the curve higher than Indiplon” value is given as 57%, the “clearance lower than Indiplon” value is 20%, the “half-life higher than Indiplon” value is 76% and the “volume of distribution higher than Indiplon” value was 212%. In the series on HepG2 cells, the “cytotoxicity compared with prior art compounds” value was “less cytotoxicity than prior art compounds”. In addition, the Percent parent remaining in series [2] (60 min) is 104%. Moreover, the Percent parent remaining in series [2] (120 min) amounted to 110%. In addition, in series [3], the inhibition at 10 µM turned out to be 99.3% and the inhibition at 0.1 µM was found to be 67.3%. Further, the “inhibition percentage (motor activity)” value in the series with motor activity of mice (5 minutes) was 84%. In the series on motor activity of mice (60 minutes), the “inhibition percentage (motor activity)” value is recorded as 84%. Further, in the series with motor activity of mice (ip), the inhibition in vivo at 0.98 µmol/kg is 81.2% and the inhibition in vivo at 98 µmol/kg was 95%. Besides, in the series with motor activity of mice (po), the inhibition in vivo at 3 µmol/kg was 84% and the inhibition in vivo at 98 µmol/kg is 92.3%.

In the case of `C#CCN(c1cccc(-c2ccnc3c(C(=O)c4cccs4)cnn23)c1)S(C)(=O)=O` [Example 16 WO2005014597, N-{3-[3-(thiophene-2-carbonyl)-pyrazolo[1,5-a]pyrimidin-7-yl]-phenyl}-N-prop-2-ynyl-methanesulfonamide, reference compound], in series [1], the inhibition at 10 µM worked out at 100% and the inhibition at 0.1 µM worked out at 99.9%. In the series on motor activity of mice (ip), the inhibition in vivo at 0.98 µmol/kg was 71.4% and the inhibition in vivo at 98 µmol/kg is 95.4%. Also, in the series with motor activity of mice (po), the inhibition in vivo at 3 µmol/kg was 38.8% and the inhibition in vivo at 98 µmol/kg was 84.3%.

Turning to `CC(=O)N(C)c1cccc(-c2ccnc3c(C(=O)c4cccs4)cnn23)c1` [Indiplon, N-{3-[3-(thiophene-2-carbonyl)-pyrazolo[1,5-a]pyrimidin-7-yl]-phenyl}-N-methyl-acetamide, reference compound], in series [4], the volume of distribution (Vd) came out at 2.32 L/kg, the clearance is 57.5 mL/min/kg, the half-life is 0.984 h and the AUC0-t worked out at 700 ng·h/mL. Also, in series [2] (60 min), the Percent parent remaining came out at 100%. Further, the Percent parent remaining in series [2] (120 min) stood at 98%. In addition, in the series with motor activity of mice (5 minutes), the “inhibition percentage (motor activity)” value is on record as 74%. Also, the “inhibition percentage (motor activity)” value in the series on motor activity of mice (60 minutes) is 67%. In the series with motor activity of mice (ip), the inhibition in vivo at 0.98 µmol/kg was 70.5% and the inhibition in vivo at 98 µmol/kg is 88%. Further, in the series with motor activity of mice (po), the inhibition in vivo at 3 µmol/kg is 73.7% and the inhibition in vivo at 98 µmol/kg is 82.4%.
